Read-outs that look alike come from different tables or passages of the source.
Key:
[1] = system: MOLM-13 (carrying MLL-AF9); test: Inhibition of proliferation of human tumor cells (Alamar Blue, 7 days), MOLM-13; type: cell-based; conditions: MOLM-13 cells (carrying MLL-AF9), method calls the value GI50
Description: Experimental Example 2: Evaluation of Inhibitory Activity of Compounds Against Proliferation of Human Tumor Cells
• Human acute lymphoblastic leukemia cells MV-4-11, purchased from American Type Culture Collection, Catalog Number: CRL-9591; • Human acute myeloid leukemia cells MOLM-13, purchased from COBIOER BIOSCIENCES CO., LTD, Catalog Number: CBP60678; • Human acute myeloid leukemia cells KG-1a, purchased from American Type Culture Collection, Catalog Number: CCL-246.1; • Inverted Microscope, purchased from Olympus Tokyo; • Countess™ Automated Cell Counter, purchased from Invitrogen, Model: C10281; and • Multilabel Reader, purchased from Bio-Tek, Model: Synergy HT.
MV-4-11 cells were cultured in an IMDM medium containing 10% fetal bovine serum, KG-a cells were cultured in an IMDM medium containing 20% fetal bovine serum, or MOLM-13 cells were cultured in an RPMI-1640 medium containing 20% fetal bovine serum, each supplemented with 100 U·mL^-1 penicillin and 100 µg·mL^-1 streptomycin. These cells were cultured at 37°C with 5% CO2. The suspensions of individual cell lines were prepared in their respective media and seeded into 96-well plates at a density of 4,000 cells/well for MV-4-11 and MOLM-13 cells, or 3,000 cells/well for KG-1a cells. On the day of the experiment, a compound stock solution was diluted in a 3-fold or 4-fold gradient using DMSO. Each gradient-diluted stock solution was then further diluted 250-fold with a complete medium to prepare a series of working solutions at different concentrations. Subsequently, 100 µL of working solution (containing a 2-fold concentration series of the test compound) was added to each well, with duplicate wells set up for each concentration.
Seven days after compound addition (on Day 7), an Alamar Blue assay reagent (MCE, HY-111391 / CS-0040317) was added to measure the fluorescence intensity in each well. Wells containing the cells in the growth medium supplemented with 0.1% DMSO (Day 7) served as high-read control wells. The readouts from the wells containing the cells in the growth medium supplemented with 0.1% DMSO on the day of compound addition (Day 0) served as low-reading control well. GraphPad Prism software was used to calculate the concentration required to inhibit 50% of cell proliferation (GI50), which serves as a cell proliferation inhibition activity index.

Menin-MLL = molecular target: T1, Menin-MLL (Homo sapiens, UniProt O00255); test: Inhibitory activity against Menin-MLL binding (fluorescence polarization); conditions: 150 nM His-Menin, 15 nM FITC-MLL, 25°C for 60 min
T1 construct: His-Menin (M1-L615 end); purchased BIORTUS BP9210
T1 sequence (O00255 1-615 isoform O00255-1): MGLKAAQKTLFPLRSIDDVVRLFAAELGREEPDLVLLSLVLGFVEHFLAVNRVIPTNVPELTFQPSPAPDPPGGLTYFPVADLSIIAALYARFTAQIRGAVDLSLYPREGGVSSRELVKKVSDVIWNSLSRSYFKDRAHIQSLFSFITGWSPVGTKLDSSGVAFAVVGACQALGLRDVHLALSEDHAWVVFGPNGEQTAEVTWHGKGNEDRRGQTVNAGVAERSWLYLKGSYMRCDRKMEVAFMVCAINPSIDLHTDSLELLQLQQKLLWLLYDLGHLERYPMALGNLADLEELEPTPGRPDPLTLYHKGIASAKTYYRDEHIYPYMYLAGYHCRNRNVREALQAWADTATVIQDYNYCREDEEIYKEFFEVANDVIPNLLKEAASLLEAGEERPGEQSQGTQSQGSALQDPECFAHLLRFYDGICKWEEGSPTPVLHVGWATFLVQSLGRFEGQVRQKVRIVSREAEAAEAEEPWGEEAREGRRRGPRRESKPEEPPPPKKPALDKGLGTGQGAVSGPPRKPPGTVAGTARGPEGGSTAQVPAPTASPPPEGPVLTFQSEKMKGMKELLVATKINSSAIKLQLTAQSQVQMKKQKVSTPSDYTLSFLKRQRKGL
Outline: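 His-Menin (M1-L615, 150 nM) preincubated with compound 15 min at 25 °C in HEPES pH 7.5, 50 mM NaCl, 1 mM DTT, 0.01% BSA, then 15 nM FITC-MLL4-43 peptide added for 60 min at 25 °C. Fluorescence polarization read; IC50 from 4-parameter logistic fit, duplicates.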

[2] = fluorescence polarization, read-out: Menin-MLL IC50
[3] = Menin-MLL IC50, fluorescence polarization

IC50 ([1]; Homo sapiens, 168 h)	IC50 (Menin-MLL; [2])	SMILES	IC50 [1]	IC50 (Menin-MLL; [3])	IC50 ([1]; Homo sapiens, MOLM-13, 168 h)
37 nM	7 nM	CCN(C(=O)c1cc(F)ccc1-c1cc(C2CN([C@H](CCCN3CCC(S(C)(=O)=O)CC3)C(C)C)C2)cc2c1cnn2C)C(C)C [Example 406]	–	–	–
41 nM	0.9 nM	CCN(C(=O)c1cc(F)ccc1-c1cc(C2CN([C@H](CCCN3CCN(CCOC)CC3)C(C)C)C2)cn2c(C)ncc12)C(C)C [Example 497]	–	–	–
4.1 nM	2.7 nM	Cc1nc(F)c2c(-c3ccc(F)cc3C(=O)N3CCOC[C@H]3C)cc(C3CN([C@H](CCCN4C5CC4CN(C)C5)C(C)C)C3)cn12 [Example 384]	–	–	–
–	–	CCN(C(=O)c1cc(F)ccc1-c1cc(C2CN(C(CCCN3CCNC(CC#N)C3)C(C)C)C2)cn2c(C)ncc12)C(C)C (stereo not drawn) [Example 499]	29 nM	2.1 nM	–
22 nM	5.3 nM	CCN(C(=O)c1cc(F)ccc1-c1cc(C2CN([C@H](CCCN3CCOC[C@H]3CO)C(C)C)C2)cn2c(C)ncc12)C(C)C [Example 453]	–	–	–
75 nM	11 nM	CCN(C(=O)c1cc(F)ccc1-c1cc(C2CN([C@H](CN3CCS(=O)(=O)CC3)C(C)C)C2)cn2c(C)ncc12)C(C)C [Example 441-1, 2-(6-{1-[(2S)-1-(1,1-dioxo-thiomorpholin-4-yl)-3-methylbutan-2-yl]azacyclobutan-3-yl}-3-methylimidazo[1,5-a]pyridin-8-yl)-N-ethyl-5-fluoro-N-(isopropyl)benzamide]	–	–	–
13 nM	1.2 nM	COC[C@H]1CN(CCC[C@H](C(C)C)N2CC(c3cc(-c4ccc(F)cc4C(=O)N(C(C)C)C(C)C)c4cnc(C)n4c3)C2)CCN1 [Example 504-2, 5-fluoro-2-(6-{1-[(3R)-6-[(3R)-3-(methoxymethyl)piperazin-1-yl]-2-methylhexan-3-yl]azacyclobutan-3-yl}-3-methylimidazo[1,5-a]pyridin-8-yl)-N,N-di(isopropyl)benzamide]	–	–	–
24 nM	1.5 nM	CCN(C(=O)c1cc(F)ccc1-c1cc(C2CN([C@H](CCCN3CCNCC3)C(C)C)C2)cn2c(C)ncc12)C(C)C [Example 472]	–	–	–
9.9 nM	0.9 nM	CCN(C(=O)c1cc(F)ccc1-c1cc(C2CN([C@H](CCCN(C)CCOC)C(C)C)C2)cn2c(C)ncc12)C(C)C [Example 510]	–	–	–
–	–	CCN(C(=O)c1cc(F)ccc1-c1cc(C2CN([C@H](CCCN3CCN(C4(CO)COC4)CC3)C(C)C)C2)cn2c(C)ncc12)C(C)C [Example 474, N-ethyl-5-fluoro-2-(6-{1-[(3R)-6-{4-[3-(hydroxymethyl)oxacyclobutan-3-yl]piperazin-1-yl}-2-methylhexan-3-yl]azacyclobutan-3yl}-3-methylimidazo[1,5-a]pyridin-8-yl)-N-(isopropyl)benzamide]	–	0.9 nM	11 nM
38 nM	10 nM	CCN(C(=O)c1cc(F)ccc1-c1cc(C2CN([C@@H](CN3CCN(C)CC3)C(C)C)C2)cn2c(C)ncc12)C(C)C [Example 403-2, N-ethyl-5-fluoro-2-(3-methyl-6-{1-[(2R)-3-methyl-1-(4-methylpiperazin-1-yl)butan-2-yl]azacyclobutan-3-yl}imidazo[1,5-a]pyridin-8-yl)-N-(isopropyl)benzamide]	–	–	–
68 nM	20 nM	CCN(C(=O)c1cc(F)ccc1-c1cc(C2CN(C(CC3COCCO3)C(C)C)C2)cn2c(C)ncc12)C(C)C (stereo not drawn) [Example 445, 2-(6-{1-[1-(1,4-dioxane-2-yl)-3-methylbutan-2-yl]azacyclobutan-3-yl}-3-methylimidazo[1,5-a]pyridin-8-yl)-N-ethyl-5-fluoro-N-(isopropyl)benzamide]	–	–	–
5.9 nM	2 nM	CCN(C(=O)c1cc(F)ccc1-c1cc(C2CN([C@H](CCCN3CCN(CCC#N)CC3)C(C)C)C2)cn2c(C)ncc12)C(C)C [Example 489]	–	–	–
25 nM	3.3 nM	CCN(C(=O)c1cc(F)ccc1-c1cc(C2CN([C@H](CCCN3CCC(OC)CC3)C(C)C)C2)cc2c1cnn2C)C(C)C [Example 399-2, N-ethyl-5-fluoro-2-(6-{1-[(3R)-6-(4-methoxypiperidin-1-yl)-2-methylhexan-3-yl]azacyclobutan-3-yl}-1-methyl-1H-indazol-4-yl)-N-(isopropyl)benzamide]	–	–	–
12 nM	3.7 nM	CCN(C(=O)c1cc(F)ccc1-c1cc(C2CN([C@H](CCCN3CCN(CCO)CC3)C(C)C)C2)cc2c1cnn2C)C(C)C [Example 400-2]	–	–	–
4.2 nM	3.8 nM	CC(=O)N1CC2(CN(CCC[C@H](C(C)C)N3CC(c4cc(-c5ccc(F)cc5C(=O)N5CCOC[C@H]5C)c5c(F)nc(C)n5c4)C3)C2)C1 [Example 370, 1-{6-[(4R)-4-[3-(1-fluoro-8-{4-fluoro-2-[(3R)-3-methylmorpholin-4-carbonyl]phenyl}-3-methylimidazo[1,5-a]pyridin-6-yl)azacyclobutan-1-yl]-5-methylhexyl]-2,6-diazaspiro[3.3]heptan-2-yl}ethan-1-one]	–	–	–
–	–	CCN(C(=O)c1cc(F)ccc1-c1cc(C2CN([C@H](CCCN3CCC(C#N)(CO)CC3)C(C)C)C2)cn2c(C)ncc12)C(C)C [Example 481]	–	1.9 nM	5.5 nM
3.3 nM	5.2 nM	Cc1nc(F)c2c(-c3ccc(F)cc3C(=O)N3CCOC[C@H]3C)cc(C3CN([C@H](CCCN4CCN(CCF)CC4)C(C)C)C3)cn12 [Example 361]	–	–	–
4.3 nM	2.3 nM	Cc1ncc2c(-c3ccc(F)cc3C(=O)N(C(C)C)C(C)C)cc(C3CN([C@H](CCCN4CCN(CCO)CC4)C(C)C)C3)cn12 [Example 463, 5-fluoro-2-(6-{1-[(3R)-6-[4-(2-hydroxylethyl)piperazin-1-yl]-2-methylhexan-3-yl]azacyclobutan-3-yl}-3-methyl-imidazo[1,5-a]pyridin-8-yl)-N,N-di(isopropyl)benzamide]	–	–	–
45 nM	6.9 nM	CCN(C(=O)c1cc(F)ccc1-c1cc(C2CN([C@H](CCCN3CCN(C[C@@H](O)CO)CC3)C(C)C)C2)cc2c1cnn2C)C(C)C [Example 413]	–	–	–
39 nM	6.8 nM	CCN(C(=O)c1cc(F)ccc1-c1cc(C2CN([C@H](CCCN3CCN(C[C@H](O)CO)CC3)C(C)C)C2)cc2c1cnn2C)C(C)C [Example 412]	–	–	–
42 nM	8.3 nM	Cc1ncc2c(-c3ccc(F)cc3C(=O)N(C)C(C)C)cc(C3CN(C(CCCN4CCN(C)CC4)C(C)C)C3)cn12 (stereo not drawn) [Example 436, 5-fluoro-N-methyl-2-(3-methyl-6-{1-[2-methyl-6-(4-methylpiperazin-1-yl)hexan-3-yl]azacyclobutan-3-yl}imidazo[1,5-a]pyridin-8-yl)-N-(isopropyl)benzamide]	–	–	–
9.9 nM	1 nM	COC[C@@H]1CN(CCC[C@H](C(C)C)N2CC(c3cc(-c4ccc(F)cc4C(=O)N(C(C)C)C(C)C)c4cnc(C)n4c3)C2)CCN1 [Example 505-2]	–	–	–

SMILES	IC50 ([1]; Homo sapiens, 168 h)	IC50 (Menin-MLL; [2])	IC50 [1]	IC50 (Menin-MLL; [3])	IC50 ([1]; Homo sapiens, MOLM-13, 168 h)
Cc1nc(F)c2c(-c3ccc(F)cc3C(=O)N3CCOC[C@H]3C)cc(C3CN([C@H](CCCN4CC5CC(C4)N5C)C(C)C)C3)cn12 [Example 349]	16.5 nM	4 nM	–	–	–

Reference: EP4782453A1 (Beyang Therapeutics Co., Ltd., priority 2023, dated 2025)
